In ChEMBL document CHEMBL4706602, “β-lactam antibiotics: An overview from a medicinal chemistry perspective” (Eur J Med Chem, 2020):
One block for each compound: values may come before it.

Columns and labels:
[1] = Half life in human at 600 mg, iv administered every 12 hrs as 1 hr infusion; format: ADME, organism-based; conditions: in vivo
[2] = Protein binding in plasma (unknown origin); format: ADME, cell-free; conditions: read-out: PPB (converted)
[3] = Oral bioavailability in human; format: ADME, organism-based; conditions: in vivo
[4] = Bioavailability in human at 500 mg, IM; format: ADME, organism-based; conditions: in vivo
[5] = Drug excretion in human urine assessed as unaltered drug; format: ADME; conditions: read-out: Drug excretion
[6] = Half life of compound in human; format: ADME
[7] = Elimination half life in human at 1 g, iv infusion for 30 mins; format: ADME, organism-based; conditions: in vivo, read-out: beta t1/2 (converted)
[8] = Chemical stability of compound assessed as compound degradation at 37 degreeC measured for 24 hrs; format: physicochemical; conditions: read-out: Drug degradation
[9] = Half life of compound; format: physicochemical

Compound: CCO/N=C(\C(=O)N[C@@H]1C(=O)N2C(C(=O)O)=C(Sc3nc(-c4cc[n+](C)cc4)cs3)CS[C@H]12)c1nsc(NP(=O)(O)O)n1.[Na+]
half-life [1]: 1.6 h

fraction unbound [2]: 0.7
Compound: CC1(C)S[C@@H]2[C@H](NC(=O)[C@H](N)c3ccc(O)cc3)C(=O)N2[C@H]1C(=O)O [AMOXICILLIN]

Compound: C[C@H]1[C@H](NC(=O)/C(=N\OC(C)(C)C(=O)O)c2csc(N)n2)C(=O)N1S(=O)(=O)O [AZTREONAM]
bioavailability [3]: 1%
bioavailability [4]: 100%
dose excreted [5]: 68%

half-life [6]: 1 h
Compound: CC1(C)S[C@@H]2[C@H](NC(=O)C(C(=O)O)c3ccccc3)C(=O)N2[C@H]1C(=O)O (some centres not stated) [CARBENICILLIN]

fraction unbound [2]: 0.1
Compound: Cc1onc(-c2ccccc2Cl)c1C(=O)N[C@@H]1C(=O)N2[C@@H]1SC(C)(C)[C@@H]2C(=O)O [CLOXACILLIN]

half-life [7]: 1 h
degraded at 24 h [8]: 60%
Compound: C[C@@H](O)[C@H]1C(=O)N2C(C(=O)O)=C(S[C@@H]3CN[C@H](C(=O)N(C)C)C3)[C@H](C)[C@H]12 [MEROPENEM]

Compound: Cc1onc(-c2ccccc2)c1C(=O)N[C@@H]1C(=O)N2[C@@H]1SC(C)(C)[C@@H]2C(=O)O [OXACILLIN]
fraction unbound [2]: 0.1

fraction unbound [2]: 0.4
half-life [9]: 0.333 h
Compound: CC1(C)S[C@@H]2[C@H](NC(=O)Cc3ccccc3)C(=O)N2[C@H]1C(=O)O [PENICILLIN G]
